Reference: patent US20040209799A1, “JAK/STAT pathway inhibitors and the uses thereof” (priority 2000, published 2004)

Assays:
chondrocytes = details: in vitro; cited from earlier work
JAK3 = molecular target: T1, JAK3 (Homo sapiens, UniProt P52333); details: cited from earlier work
T1 sequence (P52333 1-1124): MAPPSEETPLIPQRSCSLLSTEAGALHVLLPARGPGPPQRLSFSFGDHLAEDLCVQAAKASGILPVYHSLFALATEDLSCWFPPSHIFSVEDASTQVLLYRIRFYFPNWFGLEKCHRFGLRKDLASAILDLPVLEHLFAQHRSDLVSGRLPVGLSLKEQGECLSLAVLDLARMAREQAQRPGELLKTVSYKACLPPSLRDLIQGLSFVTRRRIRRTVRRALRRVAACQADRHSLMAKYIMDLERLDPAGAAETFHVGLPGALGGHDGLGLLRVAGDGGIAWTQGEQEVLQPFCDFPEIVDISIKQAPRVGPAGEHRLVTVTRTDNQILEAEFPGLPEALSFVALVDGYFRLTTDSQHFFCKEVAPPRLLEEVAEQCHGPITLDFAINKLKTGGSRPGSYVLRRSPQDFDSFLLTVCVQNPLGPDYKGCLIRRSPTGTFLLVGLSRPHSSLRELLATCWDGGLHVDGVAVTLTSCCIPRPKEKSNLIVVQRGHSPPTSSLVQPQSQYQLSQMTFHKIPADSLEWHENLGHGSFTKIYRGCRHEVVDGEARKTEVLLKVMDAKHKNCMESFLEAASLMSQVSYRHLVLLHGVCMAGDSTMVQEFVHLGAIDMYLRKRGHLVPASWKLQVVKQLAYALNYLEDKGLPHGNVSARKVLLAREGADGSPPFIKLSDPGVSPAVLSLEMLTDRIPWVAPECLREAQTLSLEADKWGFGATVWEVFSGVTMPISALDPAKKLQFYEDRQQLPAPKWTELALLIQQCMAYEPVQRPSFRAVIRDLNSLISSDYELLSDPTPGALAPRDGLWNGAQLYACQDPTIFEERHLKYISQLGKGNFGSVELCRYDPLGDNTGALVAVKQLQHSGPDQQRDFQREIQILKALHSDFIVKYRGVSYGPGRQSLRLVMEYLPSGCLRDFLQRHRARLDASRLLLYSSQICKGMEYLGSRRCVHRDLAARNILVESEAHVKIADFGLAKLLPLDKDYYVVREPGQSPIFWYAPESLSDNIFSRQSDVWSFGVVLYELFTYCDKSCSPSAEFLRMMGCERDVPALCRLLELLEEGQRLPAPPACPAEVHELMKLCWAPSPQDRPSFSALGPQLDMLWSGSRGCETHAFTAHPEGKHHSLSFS

[1] = molecular target: T2, JAK3 (Janus kinase 3) protein tyrosine kinase (Homo sapiens, UniProt P52333); experiment: poly (Glu, Tyr) 4:1 ELISA, JAK3; type: biochemical; details: inhibitors solubilized in DMSO, read-out: ec-50 (effective concentration for 50% inhibition) of JAK3
T2 sequence (P52333 1-1124): T1 sequence (P52333 1-1124)
Method: (§1) To further examine the inhibition characteristics of DBH (and its variants) to a variety of cellular components, a poly (Glu, Tyr) 4:1 ELISA was performed. Hymenialdisine (H), DBH (as marine sponge extracts: see Chipman and Faulkner, 1997), and three variant forms of synthetic DBH: the free base form of DBH (DBH-2FB), a trifluoroacetic acid salt form of DBH (DBH-2S), and a methanesulfonic acid salt form of DBH (DBH 1) were solubilized in DMSO, and tested for the ability to inhibit; ZAP-70 (ζ-associated polypeptide of 70 kDa) protein tyrosine kinase, BTK (Bruton's agarnrnaglobulinaemia tyrosine kinase), JAK3 (Janus kinase 3) protein tyrosine kinase, LCK (Lymphoid T-cell protein tyrosine kinase), and IGFR (Insulin-like growth factor receptor) protein tyrosine kinase.
(§2) Maxisorb microtiter plates (Nalge Nunc International, Rochester, N.Y.) were coated with 1 mg/ml Poly(Glu,Tyr) 4:1 (Sigma, St. Louis, Mo.) solubilized in phosphate buffered saline (PBS), 0.02% sodium azide. On the day of the assay, microtiter plates were washed 4× with TBS-Tween (25 mM Tris pH 8.0, 150 mM NaCl, 0.05% Tween 20) using a Skatron plate washer (Skatron Instruments, Sterling, Va.). 200 μl of sterile blocking buffer (3% BSA in PBS, 0.02% sodium azide) was added to each well, and the microtiter plates were incubated at 37° C. for 1 hour. The blocking buffer was removed, the plates washed, and various concentrations of inhibitor were added in a 20 μl volume to the wells. 60 μl of the appropriate substrate mix was then added. Substrate mixes were prepared as described in Table 2:
(§3) Following addition of the substrate mix, 20 μl of the test protein tyrosine kinase (in 1× assay buffer) was added. Kinase reactions were incubated 30 min at 37° C., followed by washes in the Skatron plate washer. 100 μl of biotinylated PT-66 anti-phosphotyrosine monoclonal antibody (Sigma, St. Louis, Mo.) (diluted 1:4000 in 0.5% BSA, sterile-filtered TBS) was added to each well, and incubated for an additional 30 minutes at 37° C. […] The samples were then read at 450 nm in a plate reader.

[2] = molecular target: T3, ZAP-70 (ζ-associated polypeptide of 70 kDa) protein tyrosine kinase (Homo sapiens, UniProt P43403); experiment: poly (Glu, Tyr) 4:1 ELISA, ZAP-70; type: biochemical; details: ec-50 values ranging from hundreds of micromolar to no inhibition (data not shown)
T3 sequence (P43403 1-619): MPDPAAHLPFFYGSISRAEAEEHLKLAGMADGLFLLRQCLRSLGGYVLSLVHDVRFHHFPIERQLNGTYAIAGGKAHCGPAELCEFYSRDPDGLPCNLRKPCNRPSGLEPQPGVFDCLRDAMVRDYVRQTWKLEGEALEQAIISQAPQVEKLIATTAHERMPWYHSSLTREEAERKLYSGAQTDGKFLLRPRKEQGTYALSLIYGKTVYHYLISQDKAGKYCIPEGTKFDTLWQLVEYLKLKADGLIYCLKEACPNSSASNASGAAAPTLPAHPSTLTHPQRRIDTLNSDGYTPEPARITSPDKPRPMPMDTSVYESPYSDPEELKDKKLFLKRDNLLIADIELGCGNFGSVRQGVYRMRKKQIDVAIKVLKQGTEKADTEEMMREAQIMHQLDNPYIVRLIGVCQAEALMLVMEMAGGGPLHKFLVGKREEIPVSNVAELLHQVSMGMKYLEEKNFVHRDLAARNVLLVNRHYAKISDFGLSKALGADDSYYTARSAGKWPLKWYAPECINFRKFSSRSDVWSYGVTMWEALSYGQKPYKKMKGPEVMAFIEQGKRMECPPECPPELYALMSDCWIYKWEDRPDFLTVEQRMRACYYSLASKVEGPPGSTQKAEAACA
Method: as §1, §2, §3

[3] = molecular target: LCK (Lymphoid T-cell protein tyrosine kinase) (Homo sapiens, UniProt P06239); experiment: poly (Glu, Tyr) 4:1 ELISA, LCK; type: biochemical; details: ec-50 values ranging from hundreds of micromolar to no inhibition (data not shown)
Method: as §1, §2, §3

[4] = molecular target: BTK (Bruton's agarnrnaglobulinaemia tyrosine kinase) (Homo sapiens, UniProt Q06187); experiment: poly (Glu, Tyr) 4:1 ELISA, BTK; type: biochemical; details: ec-50 values ranging from hundreds of micromolar to no inhibition (data not shown)
Method: as §1, §2, §3

[5] = molecular target: IGFR (Insulin-like growth factor receptor) protein tyrosine kinase (Homo sapiens, UniProt P08069); experiment: poly (Glu, Tyr) 4:1 ELISA, IGFR; type: biochemical; details: ec-50 values ranging from hundreds of micromolar to no inhibition (data not shown)
Method: as §1, §2, §3

[6] = tested on: chondrocytes in culture and explants of articular cartilage; details: cited from earlier work
JAK3 mRNA = experiment: northern blot analysis of JAK3 expression in human articular chondrocytes; type: cell-based; details: 2 ng/ml for 24 hours, normal adult human articular chondrocytes in monolayer
Method: Frozen chondrocyte cell strain HC30-0198 (normal human articular chondrocytes prepared as described in Example 1) was thawed, cultured in monolayer (second passage), and cultured to 5 days post confluence. Test cultures were rinsed in phosphate buffered saline (PBS), followed by addition of either; 1) recombinant human interleukin-1β (rhIL-1β) (R&D Systems, Minneapolis, Minn.) at 2 ng/ml for 24 hours in serum-free DMEM containing 1% antibiotic solution, or 2) serum-free DMEM containing 1% antibiotic solution only (control).
RNA on the Northern blot was fixed to the membrane by using a Stratalinker® 1800 UV Crosslinker (Stratagene, La Jolla, Calif.).
A 109-base pair human cDNA for JAK3 was generated by RT-PCR (see Example 2 above).
Prehybridization and hybridization of the Northern blot was performed at 42° C. using a 1:1 dilution of 2× Prehybridization/Hybridization Solution (GIBCO/BRL, Gaithersburg, Md.) and formamide. After 15 hours of hybridization using the JAK3 DNA probe, the blot was successively washed two times in 2×SSC/0.1% SDS (15 minutes/wash at room temperature), and two times in 0.5×SSC/0.1% SDS (30 minutes/wash at 65° C.). The blot was allowed to air dry, and the radioactive signal was visualized using a Fujifilm BAS-1500 phosphorimager (Fuji Medical Systems, USA, Stamford, C1).

Chain of BTK (Bruton's agarnrnaglobulinaemia tyrosine kinase) (Q06187 whole entry, species assumed): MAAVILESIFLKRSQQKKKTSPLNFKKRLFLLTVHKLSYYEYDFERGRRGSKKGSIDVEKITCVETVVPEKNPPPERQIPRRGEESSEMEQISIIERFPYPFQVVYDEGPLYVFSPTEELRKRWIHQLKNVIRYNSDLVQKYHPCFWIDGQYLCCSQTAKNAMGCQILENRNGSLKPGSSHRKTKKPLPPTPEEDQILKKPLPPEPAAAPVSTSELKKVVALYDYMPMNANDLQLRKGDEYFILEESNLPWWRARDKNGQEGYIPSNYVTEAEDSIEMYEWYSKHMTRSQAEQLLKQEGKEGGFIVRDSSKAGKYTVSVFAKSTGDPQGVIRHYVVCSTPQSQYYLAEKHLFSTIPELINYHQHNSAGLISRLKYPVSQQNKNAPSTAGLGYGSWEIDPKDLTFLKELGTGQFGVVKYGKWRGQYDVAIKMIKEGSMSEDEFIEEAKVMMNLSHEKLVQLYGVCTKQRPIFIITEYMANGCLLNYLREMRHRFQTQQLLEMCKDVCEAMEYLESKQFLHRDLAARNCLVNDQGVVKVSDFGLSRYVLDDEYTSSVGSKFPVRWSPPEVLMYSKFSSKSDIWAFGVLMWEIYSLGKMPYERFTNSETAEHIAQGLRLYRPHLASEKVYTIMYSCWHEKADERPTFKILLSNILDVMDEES
Chain of IGFR (Insulin-like growth factor receptor) protein tyrosine kinase (P08069 31-1367): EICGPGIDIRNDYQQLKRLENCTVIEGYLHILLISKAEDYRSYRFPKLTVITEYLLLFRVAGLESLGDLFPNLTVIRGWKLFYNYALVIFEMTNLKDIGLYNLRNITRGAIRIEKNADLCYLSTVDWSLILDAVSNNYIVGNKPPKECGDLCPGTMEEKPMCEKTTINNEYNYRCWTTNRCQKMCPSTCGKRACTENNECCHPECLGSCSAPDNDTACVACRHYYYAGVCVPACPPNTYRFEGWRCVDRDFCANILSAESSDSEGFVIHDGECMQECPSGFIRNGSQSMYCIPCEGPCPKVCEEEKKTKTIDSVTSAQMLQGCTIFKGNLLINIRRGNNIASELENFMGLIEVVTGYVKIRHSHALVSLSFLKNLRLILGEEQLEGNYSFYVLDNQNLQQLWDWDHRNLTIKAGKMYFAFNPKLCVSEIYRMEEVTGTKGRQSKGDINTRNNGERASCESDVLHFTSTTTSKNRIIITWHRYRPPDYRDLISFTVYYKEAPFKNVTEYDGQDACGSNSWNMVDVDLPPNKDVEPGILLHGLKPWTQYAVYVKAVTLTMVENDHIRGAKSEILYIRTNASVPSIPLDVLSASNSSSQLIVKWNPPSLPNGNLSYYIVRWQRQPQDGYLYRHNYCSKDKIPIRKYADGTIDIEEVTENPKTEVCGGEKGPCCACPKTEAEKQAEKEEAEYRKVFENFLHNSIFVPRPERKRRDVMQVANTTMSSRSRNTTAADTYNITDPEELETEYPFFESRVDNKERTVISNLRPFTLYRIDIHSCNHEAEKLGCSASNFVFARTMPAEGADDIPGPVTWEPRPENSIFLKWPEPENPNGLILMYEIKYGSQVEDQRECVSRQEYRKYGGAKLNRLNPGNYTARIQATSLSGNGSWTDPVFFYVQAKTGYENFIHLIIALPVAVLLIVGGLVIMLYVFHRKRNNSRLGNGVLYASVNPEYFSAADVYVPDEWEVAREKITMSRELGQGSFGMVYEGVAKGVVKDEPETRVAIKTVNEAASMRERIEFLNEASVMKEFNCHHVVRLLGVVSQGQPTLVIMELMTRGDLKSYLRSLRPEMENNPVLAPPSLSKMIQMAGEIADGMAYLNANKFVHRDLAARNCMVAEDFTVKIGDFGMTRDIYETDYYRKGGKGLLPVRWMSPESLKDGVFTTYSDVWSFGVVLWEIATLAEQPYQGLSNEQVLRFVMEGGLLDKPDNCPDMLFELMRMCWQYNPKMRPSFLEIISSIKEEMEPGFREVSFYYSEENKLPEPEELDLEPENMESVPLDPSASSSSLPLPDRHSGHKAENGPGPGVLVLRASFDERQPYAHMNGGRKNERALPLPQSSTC
Chain of LCK (Lymphoid T-cell protein tyrosine kinase) (P06239 whole entry, species assumed): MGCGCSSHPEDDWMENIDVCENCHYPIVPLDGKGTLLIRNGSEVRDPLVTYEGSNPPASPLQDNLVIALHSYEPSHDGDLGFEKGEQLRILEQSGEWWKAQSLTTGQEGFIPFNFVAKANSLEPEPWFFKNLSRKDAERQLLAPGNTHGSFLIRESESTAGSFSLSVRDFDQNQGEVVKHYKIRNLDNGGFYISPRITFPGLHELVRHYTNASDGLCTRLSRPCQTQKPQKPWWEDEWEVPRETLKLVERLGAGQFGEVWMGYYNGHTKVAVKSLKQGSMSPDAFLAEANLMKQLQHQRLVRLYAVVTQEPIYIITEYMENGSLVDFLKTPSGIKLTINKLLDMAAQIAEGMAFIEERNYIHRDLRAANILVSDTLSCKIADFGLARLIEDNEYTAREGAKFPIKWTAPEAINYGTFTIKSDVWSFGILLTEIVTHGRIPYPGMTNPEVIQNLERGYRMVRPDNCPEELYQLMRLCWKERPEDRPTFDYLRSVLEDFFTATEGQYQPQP

Molecule: O=C1NC(=O)c2cc(Nc3ccccc3)c(Nc3ccccc3)cc21 [DAPH, 4,5-dianilinophthalimide]
- effect on cartilage degradation by chondrocytes (chondrocytes): reduce or prevent

Molecule: COc1cc(C(=O)O)c([N+](=O)[O-])cc1OC [4,5-dimethoxy-2-nitrobenzoic acid]
- inhibition of JAK3 (JAK3): specifically inhibit

Molecule: O=c1c(-c2ccc(O)cc2)coc2cc(O)cc(O)c12 [genistein]
- effect on cartilage degradation by chondrocytes (chondrocytes): reduce or prevent

Molecule: CO[C@H]1[C@@H](OC)C[C@H](C)[C@@H](OC)C2=CC(=O)C=C(NC(=O)/C(C)=C/C=C\[C@H](OC)[C@@H](OC(N)=O)/C(C)=C/[C@@H]1C)C2=O [herbimycin A]
- effect on cartilage degradation by chondrocytes (chondrocytes): reduce or prevent

Molecule: COc1cc(C(N)=O)c([N+](=O)[O-])cc1OC [4,5-dimethoxy-2-nitrobenzamide]
- inhibition of JAK3 (JAK3): specifically inhibit

Molecule: N#C/C(=C\c1ccc(O)c(O)c1)C(=O)NCCCCc1ccccc1 [tyrphostin AG 556]
- effect on cartilage degradation by chondrocytes (chondrocytes): reduce or prevent

Molecule: NC1=NC(=O)C(=C2CCNC(=O)c3[nH]c(Br)cc32)N1 [H, 4-(2-amino-4-oxo-2-imidazolin-5-ylidene)-2-bromo-4,5,6,7-tetrahydropyrrolo (2,3-c) azepine-8-one]
- EC50 [1]: 2.6 to 10.7 µM
- Inhibition of ZAP-70 [2]: weak
- Inhibition of LCK [3]: weak
- Inhibition of BTK [4]: weak
- Inhibition of IGFR [5]: weak
- inhibition of IL-1 induced degradation of glycosaminoglycan and extracellular matrix [6]: inhibit

Molecule: rhIL-1β: recombinant human interleukin-1β (R&D Systems)
- effect on the level of JAK3 mRNA (JAK3 mRNA): neither increases nor decreases

Molecule: N#CC(C#N)=Cc1cc(O)c(O)c(O)c1 [tyrphostin AG 82]
- effect on cartilage degradation by chondrocytes (chondrocytes): reduce or prevent
